Assay results as given in patent publication US20100120690A1, “Polypeptides Having Antimicrobial Activity and Polynucleotides Encoding Same” (Novozymes Adenium Biotech A/S, priority 2005, published 2010).

Tested on: Staphylococcus carnosus ATCC51365
Assay: Yeast screening assay: radial diffusion assay of yeast supernatants
Assay type: cell-based
Set-up: key: An activity of 3 is better than Plectasin; An activity of 2 corresponds to the activity of Plectasin; 1 is worse than Plectasin
Details: yeast supernatant, clearing zone in radial diffusion assay
Description: A range of antimicrobial polypeptides, which are variants of SEQ ID NO: 1 (Plectasin), were tested for antimicrobial activity by expressing them in S. cerevisae and screening the supernatant of the yeast transformants for antimicrobial activity against Staphylococcus carnosus ATCC51365.
Radial Diffusion Assay was carried out as described in Methods in Molecular Biology, Vol. 78, Antibacterial peptide protocol, William M. Shafer, Human Press.
200-300 yeast transformant colonies were plated on 14 cm round plates containing 25 mL SC growth medium supplemented with 1.5% galactose, 0.5% glucose and 1.5% agarose. Plates were incubated for three hours at room temperature, overlaid with 25 mL of the same growth medium and allowed to grow for three days at 30° C. Then the plates were overlaid with 25 mL of LB growth medium containing 1.5% agarose and 10^5 cells of the indicator strain Staphylococcus carnosus and incubated at 30° C. overnight to allow growth of the bacterial cells. Next day, the plates were stained with 1.5 mM MTT to facilitate visualization of the clearing zones.
Yeast colonies creating clearing zones were transferred to microtiter plates containing 200 micro-L of SC growth medium supplemented with 2% glucose and ampicillin (100 mg/L). Such plates designated “master plates” were incubated for 2 days at 30° C. with shaking at 450 rpm to allow yeast growth.
10 micro-L SC growth medium from each well of the master plates were transferred to new microtiter plates containing 200 micro-L SC growth medium with 1.5% galactose and 0.5% glucose. These plates were called daughter plates and were incubated for 3 days at 30° C. under 450 rpm shaking to allow yeast growth and peptide synthesis.
Finally a Radial Diffusion Assay (RDA) was performed following the protocol described in Methods in Molecular Biology to analyse and quantify the antimicrobial activity of the yeast supernatants against S. carnosus.
Briefly, 30 mL of minimal underlay medium containing 1% agarose and 5×10^5 cfu/mL of S. carnosus was poured in an omnitray plate (Nunc, 242811). A Nunc TSP plate (#445497) was inserted immediately on the plate to allow a 96 well pattern formation. Once the media had solidified, the TSP plate was removed and 10 micro-L of yeast supernatant samples were applied on the holes. Plates were incubated 3 hours at 37° C. and overlaid with 15 mL of LB agar growth medium. Finally, plates were incubated overnight at 37° C. and coloured with 1.5 mM MTT to visualize the clearing zones.
Inspection and measurements of the clearing zones was performed on the plates. The corresponding yeast clones resulting in clearing zones of similar or increased size than the clones encoding for wild type plectasin were picked from the master plates and transferred to agar plates containing SC growth medium with 2% glucose and ampicillin (100 mg/L). Such plates were incubated for further 2 days at 30° C. to allow yeast growth. Subsequently, colony PCR was performed followed by sequence analysis to identify amino acid changes in the plectasin sequence.
An activity of 2 corresponds to the activity of Plectasin. An activity of 3 is better than Plectasin, and 1 is worse than Plectasin.

“GFGCNGPWDEDDMQCHNHCKSIKGYKGGYCAKSGFVCKCY [Mutation G33S]” and “GFGCNGPWDEDDMQCHNHCKSIKGSKGGYCAKGGFVCKCY [Mutation Y25S]” are the same in “Activity (antimicrobial activity relative to the activity of plectasin)” value: 2 for the first, 2 for the second.

First: GFGCNGPWDEDDMQCHNHCKSIKGYKGGYCAKGGFKCKCY [Mutation V36K]
Second: GFGCNGPWMEDDMQCHNHCKSIKGYKGGYCAKGGFVCKCY [Mutation D9M]
The “Activity (antimicrobial activity relative to the activity of plectasin)” value of the first is lower: 2 for the first, 3 for the second.

“GFGCNGPWDEDDMQCHNHCKSIKGYKGGYCAKGGFVCKCI [Mutation Y40I]” and “GFGCNGPWDLDDMQCHNHCKSIKGYKGGYCAKGGFVCKCY [Mutation E10L]” are the same in “Activity (antimicrobial activity relative to the activity of plectasin)” value: 2 for the first, 2 for the second.

“GFGCNGPWDEDDMQCHNHCKSIKGHKGGYCAKGGFVCKCY [Mutation Y25H]” and “GFGCNGPWDEDDMVCHNHCKSIKGYKGGYCAKGGFVCKCY [Mutation Q14V]” are the same in “Activity (antimicrobial activity relative to the activity of plectasin)” value: 2 for the first, 2 for the second.

“GFGCNGPWDEDDMQCHNHCKSIKGYKGGYCAKKGFVCKCY [Mutation G33K]” and “GFGCNGPWDEDDMQCHNHCKSIKKYKGGYCAKGGFVCKCY [Mutation G24K]” are the same in “Activity (antimicrobial activity relative to the activity of plectasin)” value: 3 for the first, 3 for the second.

Compared with “GFGCNGPWDEDDGQCHNHCKSIKGYKGGYCAKGGFVCKCY [Mutation M13G]”, “GFGCNGPWDERDMQCHNHCKSIKGYKGGYCAKGGFVCKCY [Mutation D11R]” is higher in “Activity (antimicrobial activity relative to the activity of plectasin)” value: 2 for the first, 3 for the second.

Compared with “GFGCVGPWDEDDMQCHNHCKSIKGYKGGYCAKGGFVCKCY [Mutation N5V]”, “GFGCNGPWDEDDMQCHNHCKSWKGYKGGYCAKGGFVCKCY [Mutation I22W]” is lower in “Activity (antimicrobial activity relative to the activity of plectasin)” value: 3 for the first, 2 for the second.

“GFGCNGPWDEDDMQCHNHCKSIKSYKGGYCAKGGFVCKCY [Mutation G24S]” and “GFGCNGPWDCDDMQCHNHCKSIKGYKGGYCAKGGFVCKCY [Mutation E10C]” are the same in “Activity (antimicrobial activity relative to the activity of plectasin)” value: 2 for the first, 2 for the second.

“GFGCNGPWDEDDMQCHNHCKSTKGYKGGYCAKGGFVCKCY [Mutation I22T]” and “GFGCNGPWDEDDMQCHNTCKSIKGYKGGYCAKGGFVCKCY [Mutation H18T]” are the same in “Activity (antimicrobial activity relative to the activity of plectasin)” value: 2 for the first, 2 for the second.

Going from “GFGCNGAWDEDDMQCHNHCKSIKGYKGGYCAKGGFVCKCY [Mutation P7A]” to “GFGCNGPWPEDDMQCHNHCKSIKGYKGGYCAKGGFVCKCY [Mutation D9P]”, the “Activity (antimicrobial activity relative to the activity of plectasin)” value rises from 2 to 3.

“GFGCNGPWDEDDMQCHNHCKSIKGYKGGYCAKGGFVCHCY [Mutation K38H]” and “GFGCNGPWWEDDMQCHNHCKSIKGYKGGYCAKGGFVCKCY [Mutation D9W]” are the same in “Activity (antimicrobial activity relative to the activity of plectasin)” value: 2 for the first, 2 for the second.

First: GLGCNGPWDEDDMQCHNHCKSIKGYKGGYCAKGGFVCKCY [Mutation F2L]
Second: GFGCNGPWDEPDMQCHNHCKSIKGYKGGYCAKGGFVCKCY [Mutation D11P]
The “Activity (antimicrobial activity relative to the activity of plectasin)” value of the first is lower: 2 for the first, 3 for the second.

“GFGCNGPWDEDDMQCHNVCKSIKGYKGGYCAKGGFVCKCY [Mutation H18V]” and “GFGCNGPWLEDDMQCHNHCKSIKGYNGGYCAKGGFVCKCY [D9L + K26N]” are the same in “Activity (antimicrobial activity relative to the activity of plectasin)” value: 2 for the first, 2 for the second.

“GFGCNGPWDSDDMQCHNHCKSIKGYKGGYCAKGGFVCKCY [Mutation E10S]” and “GFGCNGRWDEDDMQCHNHCKSIKGYKGGYCAKGGFVCKCY [Mutation P7R]” are the same in “Activity (antimicrobial activity relative to the activity of plectasin)” value: 3 for the first, 3 for the second.

Going from “GFGCNGPWDEDDMQCHNHCKSIKGYKGGLCAKGGFVCKCY [Mutation Y29L]” to “GFGCNGPWDEDDMQCHNHCKSIKGYKGGYCAKGGFTCKCY [Mutation V36T]”, the “Activity (antimicrobial activity relative to the activity of plectasin)” value rises from 2 to 3.

Compared with “GFGCNGPWDEDDMQCHNHCKSIKGYKGGYCAKGGFVCNCY [Mutation K38N]”, “GFGCNGPWDEDDMQCHNHCKSIKHYKGGYCAKGGFVCKCY [Mutation G24H]” is higher in “Activity (antimicrobial activity relative to the activity of plectasin)” value: 2 for the first, 3 for the second.

“GFGCNGPWDEDDMQCHNHCKSIKGYKGGYCAKGGAVCKCY [Mutation F35A]” and “GFGCNGPWDEDDMQCHNFCKSIKGYKGGYCAKGGFVCKCY (Synthetic antimicrobial polypeptide) [Mutation H18F]” are the same in “Activity (antimicrobial activity relative to the activity of plectasin)” value: 2 for the first, 2 for the second.

Going from “GFGCNGPWDEDDMHCHNHCKSIKGYKGGYCAKGGFVCKCY [Mutation Q14H]” to “GFGCNGPWDEDDMQCHNHCKSIKGYKGGYCAKGGMVCKCY [Mutation F35M]”, the “Activity (antimicrobial activity relative to the activity of plectasin)” value falls from 3 to 2.

Compared with “GFGCNGPWDELDMQCHNHCKSIKGYKGGYCAKGGFVCKCY [Mutation D11L]”, “GFGCNGPWDEDDMQCHNHCKSIKGYKGGYCRKGGFVCKCY [Mutation A31R]” is lower in “Activity (antimicrobial activity relative to the activity of plectasin)” value: 3 for the first, 2 for the second.

First: GFGCMGPWDEDDMQCHNHCKSIKGYKGGYCAKGGFVCKCY [Mutation N5M]
Second: GFGCNGPWDEDDMQCHNHCKSIKGYKGGYCQKGGFVCKCY [Mutation A31Q]
The “Activity (antimicrobial activity relative to the activity of plectasin)” value of the first is lower: 2 for the first, 3 for the second.

Going from “GFGCNGPWDEDDMQCHNHCKSIKGYKGGYCKKGGFVCKCY [Mutation A31K]” to “GFGCNGPWDEDDMQCHNQCKSIKGYKGGYCAKGGFVCKCY [Mutation H18Q]”, the “Activity (antimicrobial activity relative to the activity of plectasin)” value falls from 3 to 2.

Compared with “GFGCNGPRDEDDRQCHNHCKSIKGYKGGYCAKGGFVCKCY [W8R + M13R]”, “GFGCNGPWDEDDMQCHNHCKSIKGYKGGYCAKTGFVCKCY [Mutation G33T]” is lower in “Activity (antimicrobial activity relative to the activity of plectasin)” value: 3 for the first, 2 for the second.

“GFGCNGPWDEDDMQCHNHCKSIKGYKGGYCVKGGFVCKCY [Mutation A31V]” and “GFGCNGPWCEDDMQCHNHCKSIKGYKGGYCAKGGFVCKCY [Mutation D9C]” are the same in “Activity (antimicrobial activity relative to the activity of plectasin)” value: 2 for the first, 2 for the second.

Compared with “GFGCNGPWDEDDMQCHNHCQSIKGYKGGYCAKGGFVCKCY [Mutation K20Q]”, “GFGCQGPWDEDDMQCHNHCKSIKGYKGGYCAKGGFVCKCY [Mutation N5Q]” is higher in “Activity (antimicrobial activity relative to the activity of plectasin)” value: 2 for the first, 3 for the second.

“GFGCNGPWDEDPMQCHNHCKSIKGYKGGYCAKGGFVCKCY [Mutation D12P]” and “GFGCNGPWDEDDMQCHNHCKSIKGYKGGYCAKGGIVCKCY [Mutation F35I]” are the same in “Activity (antimicrobial activity relative to the activity of plectasin)” value: 2 for the first, 2 for the second.

“GFGCNGLWDEDDMQCHNHCKSIKGYKGGYCAKGGFVCKCY [Mutation P7L]” and “GFGCNGPWDEDDMQCHNHCKSIKFYKGGYCAKGGFVCKCY [Mutation G24F]” are the same in “Activity (antimicrobial activity relative to the activity of plectasin)” value: 2 for the first, 2 for the second.

In the case of “GFGCNGVWDEDDMQCHNHCKSIKGYKGGYCAKGGFVCKCY [Mutation P7V]”, the “Activity (antimicrobial activity relative to the activity of plectasin)” value is reported as 2.
